Among the data in patent US9809574B2, “Isoindoline or isoquinoline compounds, a process for their preparation and pharmaceutical compositions containing them” (LES LABORATOIRES SERVIER, priority 2013, dated 2017) are IC50 values, retold here.

Experiment [1] addresses Bcl-2 protein (histag-Bcl-2, UniProtKB P10415) (Homo sapiens (Human), UniProt P10415). Kind of experiment: Inhibition of Bcl-2 by the fluorescence polarisation technique. The class given is binding. The conditions noted are these: fluorescence polarisation test; incubation for 2 hours; read-out: IC50 (nM) Bcl-2 FP. The text has this:
For partial inhibitors, the percentage fluorescence polarisation inhibition for a given concentration of the test compound is indicated.
(In general: Polarisation of emitted light reports the rotation of a fluorescent probe.)

Experiment [2] relates to RS4; 11 leukaemia cell line. Put plainly: In vitro cytotoxicity, Microculture Tetrazolium Assay (MTT). The conditions noted are these: Homo sapiens, 11 cells exposed for 48 hours. The class given is cell-based. How it is done:
The cytotoxicity studies were carried out on the RS4; 11 leukaemia cell line and on H146 small Cell Lung Carcinoma cell line. The cells are distributed onto microplates and exposed to the test compounds for 48 hours. The cell viability is then quantified by a colorimetric assay, the Microculture Tetrazolium Assay (Cancer Res., 1987, 47, 939-942).

Sequence of Bcl-2 protein (P10415 whole entry): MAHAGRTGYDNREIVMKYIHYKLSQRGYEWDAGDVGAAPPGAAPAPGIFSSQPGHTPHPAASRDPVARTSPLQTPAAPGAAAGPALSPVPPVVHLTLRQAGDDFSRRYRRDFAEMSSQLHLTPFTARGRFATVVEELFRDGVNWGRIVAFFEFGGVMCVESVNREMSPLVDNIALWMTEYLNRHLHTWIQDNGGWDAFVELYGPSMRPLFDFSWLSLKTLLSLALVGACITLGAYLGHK

In general, IC50 refers to the concentration needed to halve the response being measured. In the case of `C[C@@H]1Cc2ccccc2CN1C(=O)c1cc2c(cc1-c1cc(C(=O)N(C)c3ccc(O)cc3)c3n1CCCC3)CN(C(=O)COc1ccccc1)C2` [Example 52, N-(4-Hydroxyphenyl)-N-methyl-3-{6-[(3R)-3-methyl-1,2,3,4-tetrahydroisoquinoline-2-carbonyl]-2-(2-phenoxyacetyl)-2,3-dihydro-1H-isoindol-5-yl}-5,6,7,8-tetrahydroindolizine-1-carboxamide], the results for the IC50 in experiment [1] and in experiment [2] were 3.8 nM and 56 nM, respectively.
For `Cc1c(C(=O)N(C)c2ccc(O)cc2)cc(-c2cc3c(cc2C(=O)N2Cc4ccccc4C[C@H]2C)CN(C(=O)Oc2ccc(C#N)cc2)CC3)n1C` [Example 147, 4-Cyanophenyl 6-{4-[(4-hydroxyphenyl)(methyl)carbamoyl]-1,5-dimethyl-1H-pyrrol-2-yl}-7-[(3R)-3-methyl-1,2,3,4-tetrahydroisoquinoline-2-carbonyl]-1,2,3,4-tetrahydroisoquinoline-2-carboxylate] the same measures were 3.2 nM and 2.3 nM.
Consider `Cc1c(C(=O)N(C)c2ccccc2)cc(-c2cc3c(cc2C(=O)N2Cc4ccccc4C[C@H]2C)CN(C(=O)Oc2cccc(N(C)CCN(C)C)c2)CC3)n1C` [Example 446, 3-{[2-(Dimethylamino)ethyl](methyl)amino}phenyl 6-{1,5-dimethyl-4-[methyl(phenyl)carbamoyl]-1H-pyrrol-2-yl}-7-[(3R)-3-methyl-1,2,3,4-tetrahydroisoquinoline-2-carbonyl]-1,2,3,4-tetrahydroisoquinoline-2-carboxylate], for which the half-maximal inhibitory concentration (IC50) is 4.3 nM in experiment [1] and 14 nM in experiment [2].
As for `CN(C(=O)c1cc(-c2cc3c(cc2C(=O)N2Cc4ccccc4C[C@H]2CN2CCOCC2)CN(C(=O)Cc2cccnc2)C3)n2c1CCCC2)c1ccc(O)cc1` [Example 42, N-(4-Hydroxyphenyl)-N-methyl-3-{6-[(3S)-3-(morpholin-4-ylmethyl)-1,2,3,4-tetrahydroisoquinoline-2-carbonyl]-2-[2-(pyridin-3-yl)acetyl]-2,3-dihydro-1H-isoindol-5-yl}-5,6,7,8-tetrahydroindolizine-1-carboxamide], the IC50 was 38 nM in experiment [1] and more than 150 nM in experiment [2].
Take `CCCCN(CCCC)C(=O)c1cc(-c2cc3c(cc2C(=O)N2CCc4ccccc4C2)CN(C(=O)Oc2ccccc2)CC3)n(C)c1C` [Example 161, Phenyl 6-[4-(dibutylcarbamoyl)-1,5-dimethyl-1H-pyrrol-2-yl]-7-(1,2,3,4-tetrahydroisoquinoline-2-carbonyl)-1,2,3,4-tetrahydroisoquinoline-2-carboxylate]: the values for the IC50 in experiment [1] and in experiment [2] were 68 nM and more than 150 nM, respectively.
For `Cc1ccc(CC(C)C(=O)N2Cc3cc(C(=O)N4Cc5ccccc5C[C@H]4C)c(-c4cc(C(=O)N(C)c5ccc(O)cc5)c5n4CCCC5)cc3C2)cc1` (stereo partly drawn) [Example 25, N-(4-Hydroxyphenyl)-N-methyl-3-{6-[(3R)-3-methyl-1,2,3,4-tetrahydroisoquinoline-2-carbonyl]-2-{2-[(4-methylphenyl)methyl]propanoyl}-2,3-dihydro-1H-isoindol-5-yl}-5,6,7,8-tetrahydroindolizine-1-carboxamide], in that order: 29 nM and 144 nM.
